According to patent US11919885B1, “4-(4-bromophenyl)-2-alkyloxy-6-(2-oxo-2H-1-benzopyran-3-yl)pyridine-3-carbonitrile as antimicrobial compounds” (KING FAISAL UNIVERSITY, priority 2023, dated 2024):

What was measured:
Type in all cases: cell-based
Escherichia coli = experiment: Agar plate disc-diffusion, antibacterial activity (inhibition zone); conditions: nutrient agar, 37° C., 48 h, DMSO control zone subtracted; for inhibition zone, Escherichia coli, A: A = concentration of comp. = 10,000 μL; for inhibition zone, Escherichia coli, B: B = concentration of comp. = 30.000 μL; for inhibition zone, Escherichia coli, C: C = concentration of comp. = 50,000 μL
Protocol: (§1) The agar plate disc-diffusion method was applied. Sterilized filter papers (6 mm in diameter) were wetted with 10 μL of a solution of 4-(4-Bromophenyl)-2-ethoxy-6-(2-oxo-2H-1-benzopyran-3-yl)-4-phenylpyridine-3-carbonitrile (1) or 4-(4-Bromophenyl)-2-methoxy-6-(2-oxo-2H-1-benzopyran-3-yl)-4-phenylpyridine-3-carbonitrile (2) to be tested, containing […], and the discs were allowed to air dry. The discs were then placed onto the surface of agar plates (nutrient agar for bacteria and Sabouraud's dextrose agar for fungi) seeded with the test organism. Each plate contained 15 mL of the agar medium, previously seeded with 0.2 mL of the broth culture of each organism pregrown for 18 hours. The plates were incubated at 37° C. for 48 h, and 72 h for fungi. The inhibition zones were measured in mm. Discs impregnated with DMSO were used as a control, and its inhibition zone was subtracted from the tested compound actual inhibition zone.
(§2) The results of the antimicrobial testing can be observed in Tables 1 and 2, below, using ciprofloxacin as a reference.

Bacillus cereus = experiment: as above; conditions: nutrient agar, 37° C., 48 h, DMSO control zone subtracted; for inhibition zone, Bacillus Cereus, A: A = concentration of comp. = 10,000 μL; for inhibition zone, Bacillus Cereus, B: B = concentration of comp. = 30.000 μL; for inhibition zone, Bacillus Cereus, C: C = concentration of comp. = 50,000 μL
Protocol: as §1, §2

Staphylococcus aureus = experiment: as above; conditions: nutrient agar, 37° C., 48 h, DMSO control zone subtracted; for inhibition zone, Staphylococcus aureus, A: A = concentration of comp. = 10,000 μL; for inhibition zone, Staphylococcus aureus, B: B = concentration of comp. = 30.000 μL; for inhibition zone, Staphylococcus aureus, C: C = concentration of comp. = 50,000 μL
Protocol: as §1, §2

Pseudomonas aeruginosa = experiment: as above; conditions: nutrient agar, 37° C., 48 h, DMSO control zone subtracted; for inhibition zone, Pseudomonas aeruginosa, A: A = concentration of comp. = 10,000 μL; for inhibition zone, Pseudomonas aeruginosa, B: B = concentration of comp. = 30.000 μL; for inhibition zone, Pseudomonas aeruginosa, C: C = concentration of comp. = 50,000 μL
Protocol: as §1, §2

[1] = test system: Chrysosporium keratinophilum; experiment: Agar plate disc-diffusion, antifungal activity (inhibition zone); conditions: Sabouraud's dextrose agar, 37° C., 72 h, DMSO control zone subtracted; for inhibition zone, Chrysosporium keratinophilum, A: A = concentration of comp. = 10,000 μL; for inhibition zone, Chrysosporium keratinophilum, B: B = concentration of comp. = 30.000 μL; for inhibition zone, Chrysosporium keratinophilum, C: C = concentration of comp. = 50,000 μL
Protocol: as §1, §2

Aspergillus flavus = experiment: as above; conditions: Sabouraud's dextrose agar, 37° C., 72 h, DMSO control zone subtracted; for inhibition zone, Aspergillus flavus, A: A = concentration of comp. = 10,000 μL; for inhibition zone, Aspergillus flavus, B: B = concentration of comp. = 30.000 μL; for inhibition zone, Aspergillus flavus, C: C = concentration of comp. = 50,000 μL
Protocol: as §1, §2

SMILES	inhibition zone, Escherichia coli, A (Escherichia coli) [mm]	inhibition zone, Escherichia coli, B (Escherichia coli) [mm]	inhibition zone, Escherichia coli, C (Escherichia coli) [mm]	inhibition zone, Bacillus Cereus, A (Bacillus cereus) [mm]	inhibition zone, Bacillus Cereus, B (Bacillus cereus) [mm]	inhibition zone, Bacillus Cereus, C (Bacillus cereus) [mm]	inhibition zone, Staphylococcus aureus, A (Staphylococcus aureus) [mm]	inhibition zone, Staphylococcus aureus, B (Staphylococcus aureus) [mm]	inhibition zone, Staphylococcus aureus, C (Staphylococcus aureus) [mm]	inhibition zone, Pseudomonas aeruginosa, A (Pseudomonas aeruginosa) [mm]	inhibition zone, Pseudomonas aeruginosa, B (Pseudomonas aeruginosa) [mm]	inhibition zone, Pseudomonas aeruginosa, C (Pseudomonas aeruginosa) [mm]	inhibition zone, Chrysosporium keratinophilum, A [1] [mm]	inhibition zone, Chrysosporium keratinophilum, B [1] [mm]	inhibition zone, Chrysosporium keratinophilum, C [1] [mm]	inhibition zone, Aspergillus flavus, A (Aspergillus flavus) [mm]	inhibition zone, Aspergillus flavus, B (Aspergillus flavus) [mm]	inhibition zone, Aspergillus flavus, C (Aspergillus flavus) [mm]
O=C(O)c1cn(C2CC2)c2cc(N3CCNCC3)c(F)cc2c1=O [Cip., ciprofloxacin, reference compound]	30	39	60	29	30	42	43	44	53	29	30	53	29	30	53	29	30	42
CCOc1nc(-c2cc3ccccc3oc2=O)cc(-c2ccc(Br)cc2)c1C#N [Compound 1, 4-(4-Bromophenyl)-2-ethoxy-6-(2-oxo-2H-1-benzopyran-3-yl)pyridine-3-carbonitrile]	30	40	50	30	34	40	20	25	35	25	30	39	24	29	42	28	30	41
COc1nc(-c2cc3ccccc3oc2=O)cc(-c2ccc(Br)cc2)c1C#N [Compound 2, 4-(4-Bromophenyl)-2-methoxy-6-(2-oxo-2H-1-benzopyran-3-yl)pyridine-3-carbonitrile]	29	37	48	25	32	37	15	22	30	27	33	40	25	28	40	20	21	31
